The numbers were not newly measured in PMC9033141, “Beta and Gamma Amino Acid-Substituted Benzenesulfonamides as Inhibitors of Human Carbonic Anhydrases” (Pharmaceuticals, 2022), which cites them from elsewhere.

Structures are written as SMILES. pKd: −log10 of the molar value.

The target of one data set is T1, CAIX (Homo sapiens, UniProt Q16790).
T1 construct: made in house
As to conditions: FTSA, pH 7.0, 37 °C; taken from previous publication; read-out: Observed Dissociation Constant (Kd_obs), CAIX; cited from earlier work.

The target of another data set is T2, CAXII (Homo sapiens, UniProt O43570).
T2 construct: made in house; host or cells: E. coli
T2 sequence (O43570 25-354): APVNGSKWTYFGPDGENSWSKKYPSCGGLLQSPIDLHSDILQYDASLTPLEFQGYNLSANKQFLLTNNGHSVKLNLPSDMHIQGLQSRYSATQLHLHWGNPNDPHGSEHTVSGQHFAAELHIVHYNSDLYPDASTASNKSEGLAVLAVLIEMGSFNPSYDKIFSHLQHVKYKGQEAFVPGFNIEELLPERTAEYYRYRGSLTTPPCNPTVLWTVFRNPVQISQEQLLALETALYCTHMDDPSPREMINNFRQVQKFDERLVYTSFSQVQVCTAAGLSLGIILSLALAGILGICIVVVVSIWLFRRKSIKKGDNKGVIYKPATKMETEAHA
As to conditions: FTSA, pH 7.0, 37 °C; taken from previous publication; read-out: Observed Dissociation Constant (Kd_obs), CAXII; cited from earlier work.

The next data set has as its target T3, CAI (Homo sapiens, UniProt P00915).
T3 construct: made in house; host or cells: E. coli
As to conditions: FTSA, pH 7.0, 37 °C; taken from previous publication; read-out: Observed Dissociation Constant (Kd_obs), CAI; cited from earlier work.

In another data set the target is T4, CAII (Homo sapiens, UniProt P00918).
T4 construct: made in house; host or cells: E. coli
The note with it: FTSA, pH 7.0, 37 °C; taken from previous publication; read-out: Observed Dissociation Constant (Kd_obs), CAII; cited from earlier work.

T3 sequence (P00915 whole entry): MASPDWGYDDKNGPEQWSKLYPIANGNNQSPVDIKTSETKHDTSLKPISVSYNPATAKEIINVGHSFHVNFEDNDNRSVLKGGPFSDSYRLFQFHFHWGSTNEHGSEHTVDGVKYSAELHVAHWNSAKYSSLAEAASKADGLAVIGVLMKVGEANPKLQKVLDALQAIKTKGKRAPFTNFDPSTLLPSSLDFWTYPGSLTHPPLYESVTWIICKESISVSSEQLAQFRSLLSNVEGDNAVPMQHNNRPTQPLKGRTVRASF

For the molecule `Cc1cc(C)n(C(=O)C2CC(=O)N(c3ccc(S(N)(=O)=O)cc3)C2)n1` (centres unmarked) [Compound 21], the pKd at CAIX was 6.66; on CAXII, 5.85; on CAI, 6.60; at CAII it was 7.18.

Take `NC(=S)N(CCC(=O)O)c1ccc(S(N)(=O)=O)cc1` [Compound 26]: the pKd at CAIX is 5.00; on CAXII, 4.48; on CAI it was 5.00; at CAII it was 5.30.
